In PMC11274883, “Anticancer Effect of Pt^[sequence], Pt^II5MESS, Pt^II56MESS and Their Platinum(IV)-Dihydroxy Derivatives against Triple-Negative Breast Cancer and Cisplatin-Resistant Colorectal Cancer” (Cancers, 2024):

What was measured:
Assay type in all cases: cell-based
HT29 cells [1] = assay: DCFDA cellular ROS detection assay; details: complexes at IC50, TBHP 20 µM
In short: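 Cells seeded at 2500 cells/well overnight, then loaded with 25 µM DCFH-DA for 45 min. DCF fluorescence (ex/em 485/535 nm, RFU) read at multiple time points; 20 µM TBHP served as positive control. Three independent experiments in triplicate.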

A2780 = assay: WST-1 cytotoxicity, 72 h
In short: (§1)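 Cells were seeded at 1000 per well and exposed to compound for 72 h. Viability was then read with WST-1 (1 h, absorbance at 450 nm). Apparent IC50 values came from nonlinear regression of % survival across three experiments, each with n = 3.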

MCF−7 = assay: WST-1 cytotoxicity, 72 h
In short: as §1

HT29 = assay: WST-1 cytotoxicity, 72 h
In short: as §1

MDA−MB−231 = assay: WST-1 cytotoxicity, 72 h
In short: as §1

ADDP = assay: WST-1 cytotoxicity, 72 h
In short: as §1

MDA−MB−231 cells = assay: Western blot protein expression; details: MDA−MB−231, IC50, 72 h
In short: (§2)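 Cells were lysed in RIPA buffer with orthovanadate, and 20 µg protein was run on SDS-PAGE, transferred to PVDF and probed for proliferation, apoptosis, microtubule and autophagy markers. ECL band intensities were normalised to GAPDH and then to untreated control. Three independent experiments were run per marker.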

HT29 cells [2] = assay: Western blot protein expression; details: HT29, IC50, 72 h
In short: as §2

[3] = representative blot Figure S30G
[4] = representative blot Figure S30H

Cc1c(C)c2cccnc2c2ncccc12.N[C@H]1CCCC[C@@H]1N.O=[N+]([O-])[O-].O=[N+]([O-])[O-].[OH][Pt+2][OH] [Pt^IV56MESS(OH)2, [Pt(5,6-dimethyl-1,10-phenanthroline)(1S,2S-diaminocyclohexane)(dihydroxy)](NO3)2] gave an ROS production (HT29 cells [1]; HT29, 24 h) of 244 RFU, an ROS production (HT29 cells [1]; HT29, 48 h) of 318.56 RFU and an ROS production (HT29 cells [1]; HT29, 72 h) of 368.11 RFU. For the same molecule, the “potency relative to cisplatin” value (A2780; A2780, 72 h) was 13 fold, the IC50 (A2780; A2780, 72 h, mean ± SEM) was 1690 ± 1360 nM and the “Selective cytotoxicity index (SCI)” value (A2780; IC50 MCF10A/IC50 A2780) was 2.90. The “Selective cytotoxicity index (SCI)” value (MCF−7; IC50 MCF10A/IC50 MCF−7) was 3.61, the “potency relative to cisplatin” value (MCF−7; MCF−7, 72 h) was 24 fold and the IC50 (MCF−7; MCF−7, 72 h, mean ± SEM) was 1360 ± 1470 nM. For the same molecule, the “potency relative to cisplatin” value (HT29; HT29, 72 h) was 62 fold, the IC50 (HT29; HT29, 72 h, mean ± SEM) was 1250 ± 1380 nM and the “Selective cytotoxicity index (SCI)” value (HT29; IC50 MCF10A/IC50 HT29) was 3.93. The “Selective cytotoxicity index (SCI)” value (MDA−MB−231; IC50 MCF10A/IC50 MDA−MB−231) was 6.92, the “potency relative to cisplatin” value (MDA−MB−231; MDA−MB−231, 72 h) was 18 fold and the IC50 (MDA−MB−231; MDA−MB−231, 72 h, mean ± SEM) was 710 ± 1220 nM. For the same molecule, the “potency relative to cisplatin” value (ADDP; ADDP, 72 h) was 27 fold, the IC50 (ADDP; ADDP, 72 h, mean ± SEM) was 4170 ± 1550 nM and the “Selective cytotoxicity index (SCI)” value (ADDP; IC50 MCF10A/IC50 ADDP) was 1.18. For the same molecule, the “β-actin/GAPDH normalized to control (1)” value (MDA−MB−231 cells; representative blot Figure S24A) was 0.6671, the “β-tubulin/GAPDH normalized to control (1)” value (MDA−MB−231 cells; representative blot Figure S24B) was 0.4289 and the “α-tubulin/GAPDH normalized to control (1)” value (MDA−MB−231 cells; representative blot Figure S24C) was 1.359. For the same molecule, the “p-AKT/AKT/GAPDH normalized to control (1)” value (MDA−MB−231 cells; representative blot Figure S25A) was 0.79, the “p-ERK/ERK/GAPDH normalized to control (1)” value (MDA−MB−231 cells; representative blot Figure S25B) was 0.2828 and the “p53/GAPDH normalized to control (1)” value (MDA−MB−231 cells; representative blot Figure S25C) was 1.183. For the same molecule, the “p21/GAPDH normalized to control (1)” value (MDA−MB−231 cells; representative blot Figure S25D) was 1.053, the “Bax/GAPDH normalized to control (1)” value (MDA−MB−231 cells; representative blot Figure S26A) was 2.6 and the “Bcl2/GAPDH normalized to control (1)” value (MDA−MB−231 cells; representative blot Figure S26B) was 0.8651. For the same molecule, the “Cytochrome C/GAPDH normalized to control (1)” value (MDA−MB−231 cells; representative blot Figure S26C) was 2.185, the “Procaspase 8/GAPDH normalized to control (1)” value (MDA−MB−231 cells; representative blot Figure S26D) was 0.568 and the “Cleaved BID/GAPDH normalized to control (1)” value (MDA−MB−231 cells; representative blot Figure S26E) was 8.533. For the same molecule, the “Procaspase 9/GAPDH normalized to control (1)” value (MDA−MB−231 cells; representative blot Figure S26F) was 0.4557, the “Procaspase 3/GAPDH normalized to control (1)” value (MDA−MB−231 cells; representative blot Figure S26G) was 0.9471 and the “PARP-1/GAPDH normalized to control (1)” value (MDA−MB−231 cells; representative blot Figure S26H) was 0.6182. The “Beclin1/GAPDH normalized to control (1)” value (MDA−MB−231 cells; representative blot Figure S27A) was 0.9592, the “ATG5/GAPDH normalized to control (1)” value (MDA−MB−231 cells; representative blot Figure S27B) was 0.8924 and the “ATG16L1/GAPDH normalized to control (1)” value (MDA−MB−231 cells; representative blot Figure S27C) was 1.456. The “ATG9A/GAPDH normalized to control (1)” value (MDA−MB−231 cells; representative blot Figure S27D) was 0.8822, the “ATG4B/GAPDH normalized to control (1)” value (MDA−MB−231 cells; representative blot Figure S27E) was 2.179 and the “LC3B/GAPDH normalized to control (1)” value (MDA−MB−231 cells; representative blot Figure S27F) was 0.7501. For the same molecule, the “β-actin/GAPDH normalized to control (1)” value (HT29 cells [2]; representative blot Figure S28A) was 1.209, the “β-tubulin/GAPDH normalized to control (1)” value (HT29 cells [2]; representative blot Figure S28B) was 0.7075 and the “α-tubulin/GAPDH normalized to control (1)” value (HT29 cells [2]; representative blot Figure S28C) was 0.5719. For the same molecule, the “p-AKT/AKT/GAPDH normalized to control (1)” value (HT29 cells [2]; representative blot Figure S29A) was 0.7209, the “p-ERK/ERK/GAPDH normalized to control (1)” value (HT29 cells [2]; representative blot Figure S29B) was 1.28 and the “p53/GAPDH normalized to control (1)” value (HT29 cells [2]; representative blot Figure S29C) was 5.047. For the same molecule, the “p21/GAPDH normalized to control (1)” value (HT29 cells [2]; representative blot Figure S29D) was 2.808, the “Bax/GAPDH normalized to control (1)” value (HT29 cells [2]; representative blot Figure S30A) was 3.498 and the “Bcl2/GAPDH normalized to control (1)” value (HT29 cells [2]; representative blot Figure S30B) was 1.034. For the same molecule, the “Cyt C/GAPDH normalized to control (1)” value (HT29 cells [2]; representative blot Figure S30C) was 7.663, the “Procaspase 8/GAPDH normalized to control (1)” value (HT29 cells [2]; representative blot Figure S30D) was 0.4035 and the “Cleaved BID/GAPDH normalized to control (1)” value (HT29 cells [2]; representative blot Figure S30E) was 2.651. The “Procaspase 9/GAPDH normalized to control (1)” value (HT29 cells [2]; representative blot Figure S30F) was 0.4964, the “Cleaved caspase 3/GAPDH normalized to control (1)” value (HT29 cells [2]; [3]) was 1.746 and the “Procaspase 3/GAPDH normalized to control (1)” value (HT29 cells [2]; [3]) was 1.297. The “Cleaved PARP-1/GAPDH normalized to control (1)” value (HT29 cells [2]; [4]) was 2.724, the “PARP-1/GAPDH normalized to control (1)” value (HT29 cells [2]; [4]) was 0.7172 and the “Beclin1/GAPDH normalized to control (1)” value (HT29 cells [2]; representative blot Figure S31A) was 6.222. The “ATG5/GAPDH normalized to control (1)” value (HT29 cells [2]; representative blot Figure S31B) was 0.3221, the “ATG16L1/GAPDH normalized to control (1)” value (HT29 cells [2]; representative blot Figure S31C) was 4.523 and the “ATG9A/GAPDH normalized to control (1)” value (HT29 cells [2]; representative blot Figure S31D) was 0.9044. The “ATG4B/GAPDH normalized to control (1)” value (HT29 cells [2]; representative blot Figure S31E) was 0.9223 and the “LC3B/GAPDH normalized to control (1)” value (HT29 cells [2]; representative blot Figure S31F) was 1.976.
